Drawing on patent US9428504B2, “7-hydroxy-spiropipiperidine indolinyl antagonists of P2Y1 receptor” (BRISTOL-MYERS SQUIBB COMPANY, priority 2012, dated 2016), this text covers IC50 and Ki for 24 molecules.

cloned human P2Y1 receptors, sequence (P47900 whole entry): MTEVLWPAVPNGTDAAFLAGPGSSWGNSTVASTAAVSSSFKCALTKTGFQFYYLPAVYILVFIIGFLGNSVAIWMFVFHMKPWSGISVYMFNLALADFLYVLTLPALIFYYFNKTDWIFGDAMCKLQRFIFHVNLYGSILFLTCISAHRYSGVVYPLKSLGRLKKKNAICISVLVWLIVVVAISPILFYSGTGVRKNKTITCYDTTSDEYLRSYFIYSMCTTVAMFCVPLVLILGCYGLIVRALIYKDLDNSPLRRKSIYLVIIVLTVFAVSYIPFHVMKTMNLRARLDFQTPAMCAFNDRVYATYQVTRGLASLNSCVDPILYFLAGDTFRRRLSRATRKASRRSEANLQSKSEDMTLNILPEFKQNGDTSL

One assay deals with human platelet rich plasma (PRP). Nature of the assay: ADP induced platelet aggregation assay. Conditions: Homo sapiens, Platelet, read-out: PA IC50 (μM) @ 10 μM ADP, platelet aggregation induced by 10 μM ADP, human PRP.
Protocol: The ability of P2Y1 antagonists covered in the present invention to inhibit platelet aggregation induced by 10 μM ADP was tested using human platelet rich plasma (PRP) as described in Platelet Protocols: Research and Clinical Laboratory Procedures (White, M. M. et al., Academic Press (1999)). Human blood was collected in 30 μM (final concentration in blood) argatroban (GSK) as the anticoagulant at a ratio of 1 ml per 9 ml of blood. The PRP was isolated by centrifugation at 170 g for 12 minutes. The platelet poor plasma (PPP) was used as the blank for optical aggregometry. Compounds of the present invention in DMSO solution was preincubated with 250 μl PRP at 37° C. for 1 minute with stirring speed of 1000 rpm. Aggregation was initiated by addition of 2.5 μl of 1 mM ADP (Chrono-log, Havertown, Pa.) for a final ADP concentration of 10 μM. Platelet aggregation was monitored using Optical Aggregometer (Chrono-log, Havertown, Pa.) and the area under the curve (AUC) at 5 minute was measured. IC50 was calculated using vehicle control as 0% inhibition.
With `CC(C)(C)CN1CCC2(CC1)CN(c1ccccc1NC(=O)Nc1nc3ccc(F)cc3s1)c1c(O)ccc(Cl)c12` [Example 39, 1-(2-(4-Chloro-7-hydroxy-1′-neopentylspiro[indoline-3,4′-piperidine]-1-yl)phenyl)-3-(6-fluorobenzo[d]thiazol-2-yl)urea], the IC50 was determined as 0.2 µM.
For the molecule `CC(C)(C)CN1CCC2(CC1)CN(c1ccccc1NC(=O)Nc1nc3ccc(Cl)cc3s1)c1c(O)ccc(-c3nc4cc(F)ccc4s3)c12` [Example 127, 1-(6-Chlorobenzo[d]thiazol-2-yl)-3-(2-(4-(5-fluorobenzo[d]thiazol-2-yl)-7-hydroxy-1′-neopentylspiro[indoline-3,4′-piperidin]-1-yl)phenyl)urea], the concentration for half-maximal inhibition (IC50) is 0.5 µM.
`CC(C)CN1CCC2(CC1)CN(c1ccccc1NC(=O)Nc1nc3ccc(Cl)nc3s1)c1c(O)ccc(C(F)(F)F)c12` [Example 171, 1-(5-Chlorothiazolo[5,4-b]pyridin-2-yl)-3-(2-(7-hydroxy-1′-isobutyl-4-(trifluoromethyl)spiro[indoline-3,4′-piperidine]-1-yl)phenyl)urea]: the IC50 came to 0.3 µM.
With `CC(C)(C)CN1CCC2(CC1)CN(c1ccccc1NC(=O)Nc1nc3ccc(Cl)nc3s1)c1c(O)ccc(-c3nc4cc(Cl)ccc4s3)c12` [Example 110, 1-(2-(4-(5-Chlorobenzo[d]thiazol-2-yl)-7-hydroxy-1′-neopentylspiro[indoline-3,4′-piperidin]-1-yl)phenyl)-3-(5-chlorothiazolo[5,4-b]pyridin-2-yl)urea], the IC50 was found to be 0.5 µM.
For `CC(C)c1nsc(NC(=O)Nc2ccccc2N2CC3(CCN(CC(C)(C)C)CC3)c3c(C#N)ccc(O)c32)n1` [Example 88, l-(2-(4-Cyano-7-hydroxy-1′-neopentylspiro[indoline-3,4′-piperidin]-1-yl)phenyl)-3-(3-isopropyl-1,2,4-thiadiazol-5-yl)urea], the IC50 turned out to be 0.9 µM.
Turning to `CC(C)(C)CN1CCC2(CC1)CN(c1ccccc1NC(=O)Nc1nc3ccc(F)cc3s1)c1c(O)ccc(-c3nc4ccc(F)cc4s3)c12` [Example 148, 1-(6-Fluorobenzo[d]thiazol-2-yl)-3-(2-(4-(6-fluorobenzo[d]thiazol-2-yl)-7-hydroxy-1′-neopentylspiro[indoline-3,4′-piperidin]-1-yl)phenyl)urea], the IC50 came out at 0.3 µM.
Take `CC(C)(C)CN1CCC2(CC1)CN(c1ccccc1NC(=O)Nc1nc3ccc(F)cc3s1)c1c(O)ccc(-c3nc4cc(Cl)ccc4s3)c12` [Example 133, 1-(2-(4-(5-Chlorobenzo[d]thiazol-2-yl)-7-hydroxy-1′-neopentylspiro[indoline-3,4′-piperidin]-1-yl)phenyl)-3-(6-fluorobenzo[d]thiazol-2-yl)urea]: the IC50 worked out at 0.3 µM.
In the case of `CC(C)(C)CN1CCC2(CC1)CN(c1ccccc1NC(=O)Nc1nc3ccc(F)cc3s1)c1c(O)ccc(-c3nc4ccc(Cl)cc4s3)c12` [Example 139, 1-(2-(4-(6-Chlorobenzo[d]thiazol-2-yl)-7-hydroxy-1′-neopentylspiro[indoline-3,4′-piperidin]-1-yl)phenyl)-3-(6-fluorobenzo[d]thiazol-2-yl)urea], the IC50 turned out to be 0.4 µM.
On to `CC(C)(C)CN1CCC2(CC1)CN(c1ccccc1NC(=O)Nc1ccc(OC(F)(F)F)cc1)c1c(O)ccc(-c3nc4ccc(Cl)cc4s3)c12` [Example 136, 1-(2-(4-(6-Chlorobenzo[d]thiazol-2-yl)-7-hydroxy-1′-neopentylspiro[indoline-3,4′-piperidin]-1-yl)phenyl)-3-(4-(trifluoromethoxy)phenyl)urea], for which the IC50 stood at 0.5 µM.
`CC(C)N1CCC2(CC1)CN(c1ccccc1NC(=O)Nc1ccc(OC(F)(F)F)cc1)c1c(O)ccc(-c3nc4cc(Cl)ccc4s3)c12` [Example 143, 1-(2-(4-(5-Chlorobenzo[d]thiazol-2-yl)-7-hydroxy-1′-isopropylspiro[indoline-3,4′-piperidine]-1-yl)phenyl)-3-(4(trifluoromethoxy)phenyl)urea]: the IC50 worked out at 0.9 µM.
Same read-out and setting: then `CC(C)(C)CN1CCC2(CC1)CN(c1ccccc1NC(=O)Nc1ccc(OC(F)(F)F)cc1)c1c(O)ccc(-c3nc4cc(Cl)ccc4s3)c12` [Example 134, 1-(2-(4-(5-Chlorobenzo[d]thiazol-2-yl)-7-hydroxy-1′-neopentylspiro[indoline-3,4′-piperidin]-1-yl)phenyl)-3-(4-(trifluoromethoxy)phenyl)urea], with 0.4 µM; and `CC(C)(C)CN1CCC2(CC1)CN(c1ccccc1NC(=O)Nc1csc(Cl)n1)c1c(O)ccc(-c3nc4cc(Cl)ccc4s3)c12` [Example 111, 1-(2-(4-(5-Chlorobenzo[d]thiazol-2-yl)-7-hydroxy-1′-neopentylspiro[indoline-3,4′-piperidine]-1-yl)phenyl)-3-(2-chlorothiazol-4-yl)urea], with 0.2 µM.
As for `CC(C)(C)CN1CCC2(CC1)CN(c1ccccc1NC(=O)Nc1nc3ccc(Cl)cc3s1)c1c(O)cc(F)c(Cl)c12` [Example 94, 1-(2-(4-Chloro-5-fluoro-7-hydroxy-1′-neopentylspiro [indoline-3,4′-piperidine]-1-yl)phenyl)-3-(6-chlorobenzo[d]thiazol-2-yl)urea], the half-inhibitory concentration (IC50) is 0.7 µM.
Turning to `CC(C)(C)CN1CCC2(CC1)CN(c1ccccc1NC(=O)Nc1ccc(OC(F)(F)F)cc1)c1c(O)cc(F)cc12` [Example 76, 1-(2-(5-Fluoro-7-hydroxy-1′-neopentylspiro[indoline-3,4′-piperidine]-1-yl)phenyl)-3-(4-(trifluoromethoxy)phenyl)urea], the concentration for half-maximal inhibition (IC50) is 0.7 µM.
Same read-out and setting: then `COc1ccc2nc(NC(=O)Nc3ccccc3N3CC4(CCN(CC(C)(C)C)CC4)c4c(C#N)ccc(O)c43)sc2n1` [Example 177, 1-(2-(4-Cyano-7-hydroxy-1′-neopentylspiro[indoline-3,4′-piperidine]-1-yl)phenyl)-3-(5-methoxythiazolo[5,4-b]pyridin-2-yl)urea], with 0.7 µM; and `CC(C)(C)CN1CCC2(CC1)CN(c1ccc(F)cc1NC(=O)Nc1nc3ccc(F)cc3s1)c1c(O)ccc(Cl)c12` [Example 68, 1-(2-(4-Chloro-7-hydroxy-1′-neopentylspiro[indoline-3,4′-piperidine]-1-yl)-5-fluorophenyl)-3-(6-fluorobenzo[d]thiazol-2-yl)urea], with 0.7 µM.
Take `CC(C)(C)CN1CCC2(CC1)CN(c1ccccc1NC(=O)Nc1nc3ccc(Cl)nc3s1)c1c(O)ccc(-c3nc4cc(C(F)(F)F)ccc4s3)c12` [Example 109, 1-(5-Chlorothiazolo[5,4-b]pyridin-2-yl)-3-(2-(7-hydroxy-1′-neopentyl-4-(5-(trifluoromethyl)benzo[d]thiazol-2-yl)spiro[indoline-3,4′-piperidin]-1-yl)phenyl)urea]: the IC50 was 0.4 µM.
Same read-out and setting: then `CC(C)(C)CN1CCC2(CC1)CN(c1ccccc1NC(=O)Nc1nc3ccc(F)nc3s1)c1c(O)ccc(C#N)c12` [Example 180, 1-(2-(4-Cyano-7-hydroxy-1′-neopentylspiro[indoline-3,4′-piperidine]-1-yl)phenyl)-3-(5-fluorothiazolo[5,4-b]pyridin-2-yl)urea], with 0.9 µM; and `CC(C)(C)CN1CCC2(CC1)CN(c1ccccc1NC(=O)Nc1csc(Cl)n1)c1c(O)cc(F)c(Cl)c12` [Example 103, 1-(2-(4-Chloro-5-fluoro-7-hydroxy-1′-neopentylspiro [indoline-3,4′-piperidin]-1-yl)phenyl)-3-(2-chlorothiazol-4-yl)urea], with 0.3 µM.
Turning to `CC(C)(C)CN1CCC2(CC1)CN(c1ccccc1NC(=O)Nc1csc(Cl)n1)c1c(O)ccc(-c3nc4cccc(Cl)c4s3)c12` [Example 122, 1-(2-(4-(7-Chlorobenzo[d]thiazol-2-yl)-7-hydroxy-1′-neopentylspiro[indoline-3,4′-piperidin]-1-yl)phenyl)-3-(2-chlorothiazol-4-yl)urea], the IC50 stood at 0.4 µM.
Regarding `CC(C)CN1CCC2(CC1)CN(c1ccccc1NC(=O)Nc1ccc(OC(F)(F)F)cc1)c1c(O)ccc(-c3nc4cc(Cl)ccc4s3)c12` [Example 142, 1-(2-(4-(5-Chlorobenzo[d]thiazol-2-yl)-7-hydroxy-1′-isobutylspiro[indoline-3,4′-piperidine]-1-yl)phenyl)-3-(4-(trifluoromethoxy)phenyl)urea], the IC50 worked out at 0.5 µM.
`COc1ccc2nc(NC(=O)Nc3ccccc3N3CC4(CCN(CC(C)(C)C)CC4)c4c(C#N)ccc(O)c43)sc2c1` [Example 86, l-(2-(4-Cyano-7-hydroxy-1′-neopentylspiro[indoline-3,4′-piperidin]-1-yl)phenyl)-3-(6-methoxybenzo[d]thiazol-2-yl)urea]: the IC50 was determined as 0.8 µM.
For the molecule `CC(C)(C)CN1CCC2(CC1)CN(c1ccccc1NC(=O)Nc1csc(Cl)n1)c1c(O)cc(F)c(-c3ccc(Cl)cc3)c12` [Example 163, 1-(2-(4-(4-Chlorophenyl)-5-fluoro-7-hydroxy-1′-neopentylspiro[indoline-3,4′-piperidin]-1-yl)phenyl)-3-(2-chlorothiazol-4-yl)urea], the IC50 was determined as 0.1 µM.

Still in this assay, the particulars now being: read-out: PA IC50 (μM) @ 10 μM ADP; platelet aggregation induced by 10 μM ADP, human PRP.
As to `CC(C)(C)CN1CCC2(CC1)CN(c1ccccc1NC(=O)Nc1ccc(OC(F)(F)F)cc1)c1c(O)cc(F)c(-c3nc4ccc(F)cc4s3)c12` [Example 151, 1-(2-(5-Fluoro-4-(6-fluorobenzo[d]thiazol-2-yl)-7-hydroxy-1′-neopentylspiro[indoline-3,4′-piperidin]-1-yl)phenyl)-3-(4-(trifluoromethoxy)phenyl)urea], the half-inhibitory concentration (IC50) came to 0.3 µM.

A further assay addresses cloned human P2Y1 receptors (Homo sapiens (Human), UniProt P47900). As to the kind of experiment: Binding Assay B: Scintillation Proximity Assay (SPA) for P2Y1 binding. Conditions: SPA, [33P] 2MeS-ADP displacement; read-out: P2Y1 Ki (nM) using binding assay B. Here is the method:
A SPA membrane binding assay was used to identify inhibitors of [^33P] […] Binding reactions were performed in 384-well OptiPlates (PerkinElmer Life Sciences, Cat #6007299) in a volume of 50 μL containing ˜15 fmol of P2Y1 receptor (1.7 μg of total protein), 0.3 nM [^33P] […] Reactions were allowed to proceed to completion at room temperature for 1 hour followed by centrifugation of the plate for 5 min. About 40 μL of the aqueous solution was aspirated. Plates were sealed and the [^33P]
Take `CC(C)(C)CN1CCC2(CC1)CN(c1ccccc1NC(=O)Nc1nc3ccc(F)cc3s1)c1c(O)ccc(Cl)c12` [Example 39, 1-(2-(4-Chloro-7-hydroxy-1′-neopentylspiro[indoline-3,4′-piperidine]-1-yl)phenyl)-3-(6-fluorobenzo[d]thiazol-2-yl)urea]: the Ki amounted to 3.8 nM.
